The text below walks through data of patent US12673039B2, “Methods of inducing autophagy using coumarin derivatives and related compounds” (Buck Institute for Research on Aging, priority 2019, dated 2026).

Test [1] concerns SH-SY5Y cells. The test is described as follows: Autophagic flux (LC3-II ± bafilomycin A1) in SH-SY5Y cells. The class given is cell-based, human. The note with it: presence and absence of bafliomycin A1. The method, then: FIG. 23, panels A-H: FXR modulation enhances HLH-30 expression in human neuronal SH-SY5Y cells. Panel A) Effects of AIC106 on human FXR activity was determined in a mammalian one-hybrid based kit assay by quantifying changes in the luciferase activity of FXR ligand (GW4064, GW) induced treatment. [N=3 independent experiments (mean±SD). ****p<0.0001, by one-way ANOVA with Tukey's multiple comparisons test]. Panel B) Protein expression of TFEB, cathepsin-D (CAT-D) and small heterodimer partner-1 (SHP-1) was determined by immunoblot in neuronal SH-SY5Y cells post-24 hours of treatment with AIC106 and DMSO-control. Panel C) AIC106 enhances autophagic flux in neuronal SH-SY5Y cells. Autophagic flux in DMSO-control and AIC106 treated neuronal cells was determined by quantifying levels of autophagosome specific LC3-II protein both in presence and absence of autophagy inhibitor bafliomycin A1 (Baf A, 10 nM). Panel D) Relative fold change in the band intensity of LC3-II protein, normalized to loading control actin. Values are relative to DMSO-control. […] Panel E) Effects of AIC106 treatment for 72 hours on basal TAU and phosphorylated-TAU in differentiated human neuronal SH-SHY5Y and heterozygous TSC1(+/−) mutant SH-SY5Y neuronal cells were quantitated by immunoblotting following total protein extraction. […]

In the next test the test system is TFEB. Nature of the test: TFEB activation screen, % activation/control at 24 and 48 hrs (Table 1). Format: cell-based, human. The method, then:
FIG. 25, panels A-B::AIC106 identified as a lead compound in a TFEB-transcription based screen. Panel A) Rat Neuronal N27 cells were transfected with a vector construct driving expression of secreted-Gaussia luciferase (Sec-Gaussia) in control of 2 kb human TFEB promoter. Next day, cells were seeded into 96-well cell culture plate and exposed to compounds (30 μM) from natural product library (NPL-640) or DMSO-control. After 24 and 48 hours of compound treatment supernatant from the cells was collected and TFEB promoter activity determined by quantifying luciferase activity. Panel B) Effects of AIC106 treatment on HLH-30 expression after 24 hours treatment were determined by immunoblot against GFP in young adult stage of GFP-tagged HLH-30 strain (MAH235) following total protein extraction.
It was discovered that small structural alterations in the C1 compound can have significant effects on the degree of TFEB activation (see, e.g., FIG. 17) the screening systems described herein identified a number of structures related to C1 that similarly induce TFEB.
In vitro drug screening studies. […] We utilized for these studies a 3000 compound natural product derivative library (Timtec, Newark, DE) in […] transfected with a sensitive TFEB promotor-Gaussian luciferase construct. […] C1 is a coumarin-related compound, part of a family of natural benzopyrones found in many edible plants.
To identify novel transcriptional inducers of TFEB, we transfected rat neuronal N27 cells with a vector driving expression of secreted-luciferase under control of the human TFEB promoter. […] AIC106 belongs to a family of coumarin compounds containing an active benzopyrone ring.

The subject of another test is UA44 worms. The test is described as follows: Dopaminergic neuronal loss in UA44 worms expressing human α-synuclein. Format: in vivo, C. elegans.
A further test deals with human TFEB promoter. Nature of the test: TFEB promoter secreted-luciferase assay in rat N27 neuronal cells. The note with it: 24 hour treatment, versus DMSO-control (FIG. 18, panel A). The class given is cell-based. The method, then:
FIG. 18, panels A-F: AIC106 (Autophagy Inducing Coumarin-106) induces transcription of TFEB and its targets in vitro in rat N27 neuronal cells and in vivo in C. elegans. Panel A) Relative fold change in TFEB promoter activity compared to DMSO-control was determined by quantifying luciferase activity in supernatants collected from rat N27 neuronal cells post-24 hour treatment with C1 (AIC106), D1 and D2. [n=3 independent experiments (mean±SEM), **p<0.01, by one-way ANOVA with Dunnett's multiple comparisons test]. Panel B) Chemical structure of AIC106 and its structural derivative D1 and D2. Panel C) Relative fold change in mRNA of tfeb and its targets compared to DMSO-control were quantified using qRT-PCR in N27 neuronal cells post-24 hour treatment with AIC106 [N=3 independent experiments (mean±SD). *p<0.05, **p<0.01 and ****p<0.0001, by two-way ANOVA with Sidak's multiple comparisons test]. Panel D) Changes in HLH-30 expression were measured by quantifying GFP intensity in an individual GFP-tagged HLH-30 strain (MAH235) post-24 hours treatment with AIC106 and DMSO-control. […] Panel E) HLH-30; GFP (MAH235) were monitored by fluorescence microscopy. Panel F) Relative fold change in mRNA of hlh-30 and its targets compared to DMSO-control were quantified using qRT-PCR in young adult wild type N2 worms post-24 hours treatment with AIC106. […]

Test [2] has as its system SH-SY5Y cells. Nature of the test: Immunoblot of TFEB, cathepsin-D and SHP-1 in SH-SY5Y cells. Format: cell-based, human. The settings on record: 24 hours. The method, then: FIG. 23, panels A-H: FXR modulation enhances HLH-30 expression in human neuronal SH-SY5Y cells. Panel A) Effects of AIC106 on human FXR activity was determined in a mammalian one-hybrid based kit assay by quantifying changes in the luciferase activity of FXR ligand (GW4064, GW) induced treatment. [N=3 independent experiments (mean±SD). ****p<0.0001, by one-way ANOVA with Tukey's multiple comparisons test]. Panel B) Protein expression of TFEB, cathepsin-D (CAT-D) and small heterodimer partner-1 (SHP-1) was determined by immunoblot in neuronal SH-SY5Y cells post-24 hours of treatment with AIC106 and DMSO-control. Panel C) AIC106 enhances autophagic flux in neuronal SH-SY5Y cells. Autophagic flux in DMSO-control and AIC106 treated neuronal cells was determined by quantifying levels of autophagosome specific LC3-II protein both in presence and absence of autophagy inhibitor bafliomycin A1 (Baf A, 10 nM). Panel D) Relative fold change in the band intensity of LC3-II protein, normalized to loading control actin. Values are relative to DMSO-control. [N=3 independent experiments (mean±SD). *p<0.05 and ****p<0.0001, by one-way ANOVA with Tukey's multiple comparisons test]. Panel E) Effects of AIC106 treatment for 72 hours on basal TAU and phosphorylated-TAU in differentiated human neuronal SH-SHY5Y and heterozygous TSC1(+/−) mutant SH-SY5Y neuronal cells were quantitated by immunoblotting following total protein extraction. Relative fold change in the band intensity compared to SH-SY5Y control treatment for (panel F) total TAU and (panel G) phosphorylated-TAU, normalized to loading control GAPDH. [N=3 independent experiments (mean±SD). *p<0.05 and **p<0.01, by one-way ANOVA with Sidak's multiple comparisons test]. Panel H) AIC106 treatment improves viability and health of differentiated SH-SY5Y-TSC1(+/−) neuronal cells. Images were taken post-96 hours after treatment of differentiated neuronal cells with AIC106.
FIG. 30, panels A-B: FXR modulation enhances HLH-30 expression in human neuronal SH-SY5Y cell. Panel A) TFEB expression in SH-SY5Y cells was determined by immunoblot against TFEB in protein lysates collected after 24 hours of treatment with FXR agonist GW4064 and DMSO control. Panel B) Phosphorylated-TAU levels in SH-SY5Y-P301L-TAU cells was determined by immunoblot against (Ser202, Thr205) in protein lysates collected after 24 hours of treatment with known FXR antagonist Z-gugglsterone (z-GG), DY268 and DMSO control.

From the text for UA44 worms: Panel A) Dopaminergic neuronal loss in day-5 UA44 worms was quantified by scoring percentage of worms with intact 4-CEP neurons in AIC106 and DMSO-control treatment.

On to `O=c1oc2c3c4c(cc2c2c1CCC2)CCCN4CCC3` [C1, 2,3,6,7,10,11-Hexahydro-1H,5H-cyclopenta(3,4)(1)benzopyrano(6,7,8-ij)quinolizin-12(9H)-one], for which the “autophagic flux (LC3 turnover)” value in the test with SH-SY5Y cells [1] is listed as “enhanced autophagic flux”. In addition, the “% activation/Control 24 hrs” value in the test on TFEB (24 hrs) is 350.83%. For the same compound, the “% activation/Control 48 hrs” value in the test with TFEB (48 hrs) amounted to 413.96%. Moreover, in the test with UA44 worms (strain expressing human α-synuclein within dopaminergic neurons), the neuronal loss entry was “prevented neuronal loss”. The neuroprotection result with UA44 worms (worms treated with hlh-30 RNAi) is listed as “failed to show any neuroprotection”. Also, the “luciferase transcription (TFEB promoter activity)” value with human TFEB promoter is listed as 6-7 fold. Further, in the test with SH-SY5Y cells [2], the TFEB protein expression result was “increased expression TFEB protein”; the “cathepsin D (CATD) protein expression” value is reported as “enhanced protein expression of TFEB target gene cathepsin D”; the “small heterodimer partner-1 (SHP-1) expression” value is “reduced expression of ligand-bound FXR target, small heterodimer partner-1”.
